This assay has as its target T1, Human orexin receptor type 2 (Homo sapiens, UniProt O43614).
T1 construct: expressed in transfected cells; host or cells: CHO cells (transient expression)
T1 sequence (O43614 1-444): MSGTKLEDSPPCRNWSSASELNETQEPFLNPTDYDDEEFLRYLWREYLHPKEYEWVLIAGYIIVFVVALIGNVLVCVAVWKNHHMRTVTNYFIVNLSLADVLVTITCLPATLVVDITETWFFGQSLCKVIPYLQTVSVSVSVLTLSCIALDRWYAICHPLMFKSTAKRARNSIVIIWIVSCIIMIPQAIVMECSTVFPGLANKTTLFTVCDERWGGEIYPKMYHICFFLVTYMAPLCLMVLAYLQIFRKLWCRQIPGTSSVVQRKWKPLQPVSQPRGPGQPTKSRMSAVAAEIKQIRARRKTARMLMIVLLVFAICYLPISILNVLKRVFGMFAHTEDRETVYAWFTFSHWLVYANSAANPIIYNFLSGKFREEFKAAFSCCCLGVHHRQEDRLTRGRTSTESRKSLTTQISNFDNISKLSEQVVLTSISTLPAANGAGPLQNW
The assay can be described thus: Test 1: Evaluation of agonist activity for orexin receptor type 2 (aequorin luminescence, intracellular calcium mobilization in CHO cells). The assay is classed as cell-based. To be noted: relative percentage of luminescence for the luminescence (100%) of Orexin A (100 pM); CHO cells transiently expressing human orexin receptor type 2 and apoaequorin; Orexin A Lot. 641114. On the procedure:
Test 1: Evaluation of Agonist Activity for Orexin Receptor Type 2
Human orexin receptor type 2 and apoaequorin were transiently expressed in CHO cells, and the agonist activity was evaluated based on intracellular calcium mobilization with ligand stimulation. The CHO cells transiently-expressed human orexin receptor type 2 and apoaequorin were seeded on a 384-well plate by 2,000 cells/well, and then incubated for 16-22 hours. After the plate was returned to room temperature, Coelenterazine hcp (final concentration: 1 μM) was added to the plate, and the plate was allowed to stand at room temperature for 2 hours. And then, Orexin A (PEPTIDE INSTITUTE, INC., Lot. 641114) or each test compound was added to the plate, and the luminescence of the cells was measured with FDSS7000 (Hamamatsu Photonics K.K.), wherein Orexin A and each test compound were dissolved in DMSO (final concentration: 0.1%), and diluted with a buffer (Hanks, 20 mM HEPES, 0.1% BSA). The agonist activity of each test compound for orexin receptor type 2 was calculated as relative percentage of luminescence for the luminescence (100%) of Orexin A (100 pM).
On the technique in general: A change in cytosolic calcium serves as a functional read-out for many receptors and channels.

From US12162872B2, “Cycloalkylurea derivative” (Sumitomo Pharma Co., Ltd., priority 2019, dated 2024) come the findings set out here.

As to `CC(C)N1CC[C@H](O[C@H]2CCCC(F)(F)[C@@H]2NC(=O)N2CCC(C)(c3noc([C@@H]4C[C@@H]4C)n3)CC2)C1` [Example 74, N-[(1R,6S)-2,2-difluoro-6-{[(3S)-1-(propan-2-yl)pyrrolidin-3-yl]oxy}cyclohexyl]-4-methyl-4-(5-[(1R,2S)-2-methylcyclopropyl]-1,2,4-oxadiazol-3-yl)piperidine-1-carboxamide], the “agonist activity (%)” value came out at 174%.
Turning to `Cc1ccc(C2CCN(C(=O)N[C@H]3CCC[C@@H]3N3CCN(C(C)C)CC3)CC2)cc1` (racemic) [Example 5, rac-4-(4-methylphenyl)-N-{(1S,2S)-2-[4-(propan-2-yl)piperazin-1-yl]cyclopentyl}piperidine-1-carboxamide], the “agonist activity (%)” value is 103%.
For the compound `CC(C)N1CCN([C@H]2CCCC(F)(F)[C@@H]2NC(=O)N2CCC(C)(c3ncc(C4CC4)s3)CC2)CC1` (racemic) [Example 48, rac-4-(5-cyclopropyl-1,3-thiazol-2-yl)-N-{(1R,6S)-2,2-difluoro-6-[4-(propan-2-yl)piperazin-1-yl]cyclohexyl}-4-methylpiperidine-1-carboxamide], the “agonist activity (%)” value came out at 156%.
Next, `CC(C)N1CCN([C@H]2CCCC(F)(F)[C@@H]2NC(=O)N2CCC(C)(c3noc([C@H]4C[C@H]4C)n3)CC2)CC1` [Example 68, N-{(1R,6S)-2,2-difluoro-6-[4-(propan-2-yl)piperazin-1-yl]cyclohexyl}-4-methyl-4-{5-[(1S,2R)-2-methylcyclopropyl]-1,2,4-oxadiazol-3-yl}piperidine-1-carboxamide]: 156%; `CC(C)N1CCN([C@H]2CCCC(F)(F)[C@@H]2NC(=O)N2CCC(C)(c3ncn(C4CC4)n3)CC2)CC1` (racemic) [Example 29, rac-4-(1-cyclopropyl-?H-1,2,4-triazol-3-yl)-N-{(1R,6S)-2,2-difluoro-6-[4-(propan-2-yl)piperazin-1-yl]cyclohexyl}-4-methylpiperidine-1-carboxamide]: 109%; `Cc1ccc(C2(C)CCN(C(=O)N[C@@H]3[C@@H](N4CCN(C(C)C)CC4)CCCC3(F)F)CC2)c(C#N)c1` [Example 60, 4-(2-cyano-4-methylphenyl)-N-{(1R,6S)-2,2-difluoro-6-[4-(propan-2-yl)piperazin-1-yl]cyclohexyl}-4-methylpiperidine-1-carboxamide]: 151%.
Next, `CC(C)N1CCN([C@H]2CCCC(F)(F)[C@@H]2NC(=O)N2CCC(C)(c3ccc(C(F)F)cc3)CC2)CC1` (racemic) [Example 59, rac-4-[4-(difluoromethyl)phenyl]-N-{(1R,6S)-2,2-difluoro-6-[4-(propan-2-yl)piperazin-1-yl]cyclohexyl}-4-methylpiperidine-1-carboxamide]: 164%.
Next, `CC(C)N1CCN([C@H]2CCCC(F)(F)[C@@H]2NC(=O)N2CCC(C)(C3CCC(F)(F)CC3)CC2)CC1` (racemic) [Example 30, rac-4-(4,4-difluorocyclohexyl)-N-{(1R,6S)-2,2-difluoro-6-[4-(propan-2-yl)piperazin-1-yl]cyclohexyl}-4-methylpiperidine-1-carboxamide]: 128%.
In the case of `Cc1cnc(C2CCN(C(=O)N[C@@H]3[C@@H](N4CCN(C(C)C)CC4)CCCC3(F)F)CC2)nc1` (racemic) [Example 54, rac-N-{(1R,6S)-2,2-difluoro-6-[4-(propan-2-yl)piperazin-1-yl]cyclohexyl}-4-(5-methylpyrimidin-2-yl)piperidine-1-carboxamide], the “agonist activity (%)” value worked out at 146%.
Next, `CCN1CCN([C@H]2CCCC[C@H]2NC(=O)N2CCC(c3ccc(C)cc3)CC2)CC1` (racemic) [Example 2, rac-N-[(1R,2S)-2-(4-ethylpiperazin-1-yl)cyclohexyl]-4-(4-methylphenyl)piperidine-1-carboxamide]: 58%.
In the case of `CC(C)N1CCN([C@@H]2CCCC(F)(F)[C@H]2NC(=O)N2CCC(C)(c3cc(C4CC4)on3)CC2)CC1` [Example 22, 4-(5-cyclopropyl-1,2-oxazol-3-yl)-N-{(1S,6R)-2,2-difluoro-6-[4-(propan-2-yl)piperazin-1-yl]cyclohexyl}-4-methylpiperidine-1-carboxamide], the “agonist activity (%)” value stood at 163%.
Under `COc1ccc(C2CCN(C(=O)N[C@@H]3[C@@H](N4CCN(C(C)C)CC4)CCCC3(F)F)CC2)nc1` (racemic) [Example 53, rac-N-{(1R,6S)-2,2-difluoro-6-[4-(propan-2-yl)piperazin-1-yl]cyclohexyl}-4-(5-methoxypyridin-2-yl)piperidine-1-carboxamide] stands 143%; under `CC(C)N1CCN([C@H]2CCCC(F)(F)[C@@H]2NC(=O)N2CCC(c3ccccc3)CC2)CC1` (racemic) [Example 38, rac-N-{(1R,6S)-2,2-difluoro-6-[4-(propan-2-yl)piperazin-1-yl]cyclohexyl}-4-phenylpiperidine-1-carboxamide], 142%; under `CC(C)N1CC[C@H](O[C@H]2CCCC(F)(F)[C@@H]2NC(=O)N2CCC(C)(c3noc(C4CC4)n3)CC2)C1` [Example 71, 4-(5-cyclopropyl-1,2,4-oxadiazol-3-yl)-N-[(1R,6S)-2,2-difluoro-6-{[(3S)-1-(propan-2-yl)pyrrolidin-3-yl]oxy}cyclohexyl]-4-methylpiperidine-1-carboxamide], 199%.
Next, `Cc1ccc(C2CC=C(C(=O)N[C@@H]3[C@@H](N4CCN(C(C)C)CC4)CCCC3(F)F)CC2)cc1` (mixture of isomers) [Example 77, rac-N-{(1R,6S)-2,2-Difluoro-6-[4-(propan-2-yl)piperazin-1-yl]cyclohexyl}-4′-methyl-1,2,3,6-tetrahydro[1,1′-biphenyl]-4-carboxamide]: 158%.
For the compound `Cc1ccc(C2(C)CCN(C(=O)N[C@@H]3[C@@H](N4CCN(C(C)C)CC4)CCCC3(F)F)CC2)c(F)c1` [Example 56, N-{(1R,6S)-2,2-difluoro-6-[4-(propan-2-yl)piperazin-1-yl]cyclohexyl}-4-(2-fluoro-4-methylphenyl)-4-methylpiperidine-1-carboxamide], the “agonist activity (%)” value is 140%.
`CC(C)N1CC[C@H](O[C@H]2CCCC(F)(F)[C@@H]2NC(=O)N2CCC(C)(c3noc([C@@H]4C[C@@H]4F)n3)CC2)C1` [Example 72, N-[(1R,6S)-2,2-difluoro-6-{[(3S)-1-(propan-2-yl)pyrrolidin-3-yl]oxy}cyclohexyl]-4-{5-[(1S,2S)-2-fluorocyclopropyl]-1,2,4-oxadiazol-3-yl}-4-methylpiperidine-1-carboxamide]: the “agonist activity (%)” value is 146%.
Take `Cc1ccc(C2CCN(C(=O)N[C@H]3CCCC[C@@H]3N3CCN(C(C)C)CC3)CC2)cc1` (racemic) [Example 1, rac-4-(4-Methylphenyl)-N-{(1S,2S)-2-[4-(propan-2-yl)piperazin-1-yl]cyclohexyl}piperidine-1-carboxamide]: the “agonist activity (%)” value turned out to be 137%.
Under `CC(C)N1CCN([C@H]2CCCC(F)(F)[C@@H]2NC(=O)N2CCC(C)(c3noc(C4CC4)n3)CC2)CC1` (racemic) [Example 19, rac-4-(5-Cyclopropyl-1,2,4-oxadiazol-3-yl)-N-{(1R,6S)-2,2-difluoro-6-[4-(propan-2-yl)piperazin-1-yl]cyclohexyl}-4-methylpiperidine-1-carboxamide] stands 167%.
Under `CC(C)N1CCN([C@H]2CCCC(F)(F)[C@@H]2OC(=O)N2CCC(C)(c3noc(C4CC4)n3)CC2)CC1` [Example 14, (1R,6S)-2,2-difluoro-6-[4-(propan-2-yl)piperazin-1-yl]cyclohexyl 4-(5-cyclopropyl-1,2,4-oxadiazol-3-yl)-4-methylpiperidine-1-carboxylate] stands 178%; under `CC(C)N1CCN([C@H]2CCCC(F)(F)[C@@H]2NC(=O)N2CCC(C)(c3noc(CC(F)(F)F)n3)CC2)CC1` [Example 70, N-{(1R,6S)-2,2-difluoro-6-[4-(propan-2-yl)piperazin-1-yl]cyclohexyl}-4-methyl-4-[5-(2,2,2-trifluoroethyl)-1,2,4-oxadiazol-3-yl]piperidine-1-carboxamide], 141%.
Next, `CC(C)N1CCN([C@H]2CCCC(F)(F)[C@@H]2NC(=O)N2CCC(C)(c3nc4c(o3)CCCC4)CC2)CC1` (racemic) [Example 27, rac-N-{(1R,6S)-2,2-difluoro-6-[4-(propan-2-yl)piperazin-1-yl]cyclohexyl}-4-methyl-4-(4,5,6,7-tetrahydro-1,3-benzoxazol-2-yl)piperidine-1-carboxamide]: 162%.
